These results are taken from patent US9844531B2, “Methods of maintaining and improving muscle function” (ABBOTT LABORATORIES, priority 2013, dated 2017).

The subject of assay [1] is interleukin-1A (IL1A). Kind of assay: IL1A level after 8 weeks of dietary EGCg supplementation in aged SD rats (multi-analyte profiling). In kind it is in vivo, Sprague Dawley rat. Particulars: for IL1A: gastrocnemius muscle lysate, 22 mos at sacrifice. Here is the method: (§1) Example 3 illustrates the effect of 8 weeks of dietary EGCg supplementation on skeletal muscle biomarkers in the aged Sprague Dawley (SD) rat model of sarcopenia. More particularly, gastrocnemius muscle lysates of aged SD rats administered EGCg were analyzed for changes in various skeletal muscle biomarkers.
(§2) In Vivo Study 1—Aged (25 Months Old) Vs. Adult (13 Months Old)-Male SD rats (12 months old; adult rats; Dataset A) and male SD rats (24 months old; aged rats; Dataset B) were purchased from Harlan (Indianapolis, Ind.). The rats were single-housed in cages with hardwood chip bedding and were exposed to a 12-hour light cycle. At receipt, rats had ad libitum access to natural chow (Teklad Global 18% Protein Rodent Diet, catalog #2018S, Harlan) and water during adaptation to the animal facility. Adult rats (Dataset A) were 13 months old at the time of sacrifice, and aged rats (Dataset B) were 25 months old at the time of sacrifice. The right gastrocnemius muscle of the rats were collected and flash-frozen on liquid nitrogen.
(§3) In Vivo Study 2—EGCg Supplementation-Male SD rats (19 months old) were purchased from Harlan (Indianapolis, Ind.). The rats were single-housed in cages with hardwood chip bedding and were exposed to a 12-hour light cycle. At receipt, rats had ad libitum access to purified diet AIN-93M (Research Diets, #D10012M) and water during adaptation to the animal facility. Subsequently, the rats were given ad libitum access to AIN-93M diet supplemented with EGCg-rich (>95%) Teavigo® at 200 mg/kg body weight (Dataset C) for 8 weeks.
(§4) In Vivo Study 3—EGCg Supplementation-Male SD rats (19 months old) were purchased from Harlan (Indianapolis, Ind.). The rats were single-housed in cages with hardwood chip bedding and were exposed to a 12-hour light cycle. At receipt, rats had ad libitum access to purified diet AIN-93M (Research Diets, #D10012M) and water during adaptation to the animal facility. Subsequently, the rats were given ad libitum access to either AIN-93M diet (Dataset D) or AIN-93M diet supplemented with EGCg-rich (>95%) Teavigo® at 50 mg/kg body weight (Dataset E) for 8 weeks.
(§5) Preparation of Muscle Lysates-Whole gastrocnemius muscles were collected from euthanized rats (Dataset A, Dataset B, Dataset C, Dataset D, and Dataset E) and flash-frozen on liquid nitrogen and stored in aluminum foil at −80° C. Subsequently, the gastrocnemius muscle samples were partially thawed on dry ice. Approximately 200 mg of tissue was obtained from each muscle sample by mechanical biopsy punch. The specimens were quickly pulverized on liquid nitrogen and transferred to a 15 mL conical tube and weighed. A mild, detergent-free lysis buffer (9×) was added to the dried specimen in the conical tube. 9× Lysis buffer (50 mM Tris.HCl, 2 mM EDTA, pH 7.4/NaOH) was supplemented with a mammalian protease inhibitor cocktail (Sigma-Aldrich, Inc.) at a 1:200 dilution and stored on ice. The specimens were then vortexed for 10 seconds ahead of homogenization at 25×1000 rpm for approximately 10 seconds. The lysate was vortexed again for 10 seconds and transferred to a 1.5 mL tube. Lysates were centrifuged/clarified for 5 minutes at 11000 rpm at 4° C. in a standard table-top Eppendorf centrifuge. Supernatant (1 mL) was aliquotted to a 2 mL cryotube and stored at −80° C. Lysates were analyzed by Myriad Rules Based Medicine (Austin, Tex.) on the RodentMAP® v.2.0 Antigens and Rat METABOLIC® multi-analyte profiling platforms.

Assay [2] relates to myostatin in C2C12 myotubes. The assay can be described thus: Western blot of myostatin expression in serum starved C2C12 myotubes. The format is cell-based. Particulars: for Myostatin (% control): 24 hrs, NC = 100, No Serum = 315. How it is done:
Example 5 illustrates the effect of EGCg on expression of myostatin in serum starved C2C12 myotubes. C2C12 myoblasts were passaged in DMEM supplemented with 10% fetal calf serum (FCS), 1% glutamine, and 1% penicillin-streptomycin under an atmosphere of 10% CO2 in air at 37° C. When the myoblasts reached about 80% confluency, they were differentiated into myotubes in DMEM containing 2% horse serum (HS), with medium changes every 2 days. Differentiation was complete in 5-7 days, and the myotubes remained viable for a further 4-5 days.
To induce protein degradation in the myotubes, HS-supplemented DMEM media was replaced with DMEM medium without any serum for 24 hrs, while the negative control group of myotubes (“NC”) was not deprived of serum (i.e., the NC group was re-fed with DMEM media containing 2% HS). Myotubes were treated with EGCg (10 μM and 25 μM) over this serum starvation period. Western blot analysis was carried out on cell lysates as described in Example 4.
FIG. 4 and Table 5 illustrate the expression of myostatin in the non-serum starved control cells (“NC”), serum starved control cells (“No Serum”), and EGCg treated serum starved cells (“No Serum+10 μM EGCg” and “No Serum+25 μM EGCg”). The densitometric analysis was based on three separate blots. Results are expressed as mean plus S.E.M., and statistical analysis between groups was determined by one-way ANOVA followed by Tukey's test. The difference from the “NC” group is indicated as “a” (p<0.01), while the difference from the “No Serum” group is indicated as “b” (p<0.01).
(Immunoblotting shows a protein as a band on a membrane.)

For assay [3], the system named is myostatin. Kind of assay: Western blot of myostatin in gastrocnemius muscle lysates of aged SD rats. Conditions: EGCg 200 mg/kg body weight, 8 weeks. The format is in vivo, Sprague Dawley rat. Here is the method: (§6) Example 4 illustrates the effect of 8 weeks of dietary EGCg supplementation in the aged Sprague Dawley (SD) rat model of sarcopenia. More particularly, the level of myostatin in gastrocnemius muscle lysates of young SD rats (“young”), aged SD rats (“old”), and aged SD rats administered EGCg (“old-EGCg”) was analyzed and compared.
In Vivo Study—EGCg Supplementation-Male SD rats (20 months old) were purchased from Harlan (Indianapolis, Ind.). The rats were single-housed in cages with hardwood chip bedding and were exposed to a 12-hour light cycle. For 1 week, rats had ad libitum access to purified diet AIN-93M (Research Diets, #D10012M) and water during adaptation to the animal facility. The AIN-93M diet typically comprises about 13% (by weight) protein, about 73% (by weight) carbohydrate, and about 4% (by weight) fat, and has an energy content of about 3.77 kcal/gram. Subsequently, the rats were given ad libitum access to AIN-93M diet supplemented with EGCg (>95%) (Teavigo, DSM) at 200 mg/kg body weight (n=12) (“old-EGCg” or “EGCg supplemented”) or control AIN-93 diet (n=11) (“old” or “Control”) for 8 weeks. […]
Western blot analysis was carried out using anti-myostatin antibodies (Anti-GDF8/Myostatin antibody-Cat.# ab996-Abcam). […] Blots were scanned by densitometry to quantitate differences. […]

Assay [4] has as its system gastrocnemius muscle. The assay can be described thus: Gastrocnemius muscle wet weight in the aged SD rat model of sarcopenia. The format is in vivo, Sprague Dawley rat. Conditions: 8 weeks. How it is done:
as §6
In Vivo Study—EGCg Supplementation-Male SD rats (20 months old) were purchased from Harlan (Indianapolis, Ind.). The rats were single-housed in cages with hardwood chip bedding and were exposed to a 12-hour light cycle. For 1 week, rats had ad libitum access to purified diet AIN-93M (Research Diets, #D10012M) and water during adaptation to the animal facility. The AIN-93M diet typically comprises about 13% (by weight) protein, about 73% (by weight) carbohydrate, and about 4% (by weight) fat, and has an energy content of about 3.77 kcal/gram. Subsequently, the rats were given ad libitum access to AIN-93M diet supplemented with EGCg (>95%) (Teavigo, DSM) at 200 mg/kg body weight (n=12) (“old-EGCg” or “EGCg supplemented”) or control AIN-93 diet (n=11) (“old” or “Control”) for 8 weeks.
as §5, with “rats, weighed,” for “rats (Dataset A, Dataset B, Dataset C, Dataset D, and Dataset E)”, “Lysates were centrifuged/clarified for 5 minutes at 11000 rpm at 4° C. in a standard table-top Eppendorf centrifuge. Supernatant (1 mL) was aliquotted to a 2 mL cryotube and stored at −80° C. Lysates were analyzed by Myriad Rules Based Medicine (Austin, Tex.) on the RodentMAP® v.2.0 Antigens and Rat METABOLIC® multi-analyte profiling platforms.” left out

The subject of assay [5] is VEGF. The assay can be described thus: VEGF level after 8 weeks of dietary EGCg supplementation in aged SD rats (multi-analyte profiling). The format is in vivo, Sprague Dawley rat. Conditions: for VEGF: gastrocnemius muscle lysate, 22 mos at sacrifice. Here is the method: as §1, §2, §3, §4, §5
[6] abbreviates: 8 weeks of dietary EGCg supplementation, aged SD rats.
The mark [7] stands for this setting: Dataset C, EGCg 200 mg/kg bw in diet, 8 weeks, Quantitative Assay I.
The mark [8] stands for this setting: Dataset E, EGCg 50 mg/kg bw in diet, 8 weeks, Quantitative Assay II.
[9] abbreviates: muscle, EGCg 50 mg/kg bw v. control diet, 22 mos, n.s.
Where [10] appears, read: serum, EGCg 200 mg/kg bw, 8 weeks, n.s.

Where “and” joins values, the source holds several entries; their conditions need not be identical. Identical values can stand only once. Entries after “also recorded” stand apart in the source; their conditions may differ.

Consider epigallocatechin-3-gallate [EGCg], for which, in assay [1] (setting [6]), the “level of IL1A in gastrocnemius muscle (in words)” value was “significant decrease”. Also, the entries for the “IL1A” value in assay [1] (setting [7]) and in assay [1] (setting [8]) were 14.3 pg/mL and 28.0 pg/mL, respectively. Besides, in assay [1] (setting [9]), the “IL1A % change Dataset E/Dataset D” value is reported as −12% (n.s.). Moreover, in assay [1] (setting [10]), the “IL1A, Serum, Dataset C (EGCg Supplemented - 22 mos.) v. Dataset B (25 mos.)” value is −8% (n.s.). Also, the “Myostatin (% control)” value in assay [2] (No Serum + 10 μM EGCg) came to 55 % control; in assay [2] (No Serum + 25 μM EGCg), 43 % control. In addition, the “myostatin levels compared to the No Serum group (in words)” value in assay [2] (serum starved C2C12 myotubes, EGCg 10 μM and 25 μM) is “significantly lower; also recorded: decrease”. Moreover, in assay [3] (western blot), the “intramuscular myostatin levels compared to old rats without EGCg (in words)” value is listed as “decrease”. In addition, in assay [3] (Old-EGCg rats (22 months old), single rats (ID 3, 6, 9), densitometry, Old rats 700-800), the “Myostatin (% cage control)” value was 80 % cage control and 140 % cage control and 120 % cage control. In addition, in assay [4] (EGCg 200 mg/kg body weight), the “gastrocnemius muscle wet weight compared to Control rats (in words)” value is on record as “significant increase”. In addition, in assay [4] (gastrocnemius, EGCg 200 mg/kg body weight in diet), the “Muscle wet weight % change from control” value was “+5.12%”. In assay [4] (gastrocnemius, EGCg 200 mg/kg body weight in diet, n=12, p < 0.05 compared to Control), the “Muscle Wet Weight (grams)” value was 3.00 ± 0.03 grams. Also, in assay [5] (setting [6]), the “level of VEGF in gastrocnemius muscle (in words)” value is listed as “significant increase”. Besides, the entries for the “VEGF” value in assay [5] (setting [7]) and in assay [5] (setting [8]) were 229 pg/mL and 479 pg/mL, respectively. Moreover, the “VEGF % change Dataset E/Dataset D” value in assay [5] (setting [9]) is on record as −5% (n.s.). Besides, in assay [5] (setting [10]), the “VEGF, Serum, Dataset C (EGCg Supplemented - 22 mos.) v. Dataset B (25 mos.)” value is listed as −15% (n.s.).
